Values of other authors as cited in patent publication US20250195551A1 (L4 BIO LLC, priority 2023, published 2025).

Molecular target: glycine receptor (GlyR)
Settings: interaction with glycine receptor (GlyR) in humans; cited from earlier work

Q: With ivermectin as the substance, how does the EC50 read?
A: ~1200 nM
